Test system: db/db (BKS.Cg-+Lepr^db/+Lepr^db) mice
Assay: Plasma glucose after 21 days of administration in powder chow, alone or with pioglitazone
Assay type: in vivo
Conditions: male db/db mice, 21 days in powder chow, feeding condition; average (n=7) ± standard deviation
Experimental: Male db/db (BKS.Cg-+Lepr^db/+Lepr^db) mice (6 weeks of age, CLEA Japan (Tokyo, Japan)) were divided into 4 groups (n=7 in each group) comprising Group A to Group D. Group A had free access to CE-2 powder chow (CLEA Japan) for 21 days. […] Group C had free access to CE-2 powder chow (CLEA Japan) containing 0.0075% (w/w) of pioglitazone hydrochloride for 21 days. The dose of pioglitazone in Group C was calculated to be 17.7±0.6 (mean±SD) mg/kg body weight/day. […] During 21 days of administration of the powder chow, there were not significant differences in the administration amount of the powder chow in the above 4 groups. After 21 days of administration of the powder chow, blood samples were taken from the orbital veins of the mice by capillary pipette under feeding condition, and plasma glucose levels were enzymatically measured by using Autoanalyzer 7080 (Hitachi, Japan).
The values in the table means average (n=7)±standard deviation.

Structure (SMILES)	Plasma Glucose
N#Cc1ccccc1Cn1c(N2CCC[C@@H](N)C2)ncc(F)c1=O [Compound I, 2-[[2-[(3R)-3-Amino-piperidinyl)-5-fluoro-6-oxo-6H-pyrimidinyl]methyl]-benzonitrile]	412.4 ± 77.5 mg/dL
CCc1ccc(CCOc2ccc(CC3SC(=O)NC3=O)cc2)nc1 (centres unmarked) [Pioglitazone, 5-{[4-(2-(5-ethyl-2-pyridyl)ethoxy)phenyl]-methyl}-thiazolidine-2,4-dione]	394.4 ± 47.9 mg/dL

Source: US20070060529A1, “ADMINISTRATION OF DIPEPTIDYL PEPTIDASE INHIBITORS” (priority 2005, published 2007)
